For 15 compounds, EC50 results are on record in patent publication US20250042861A1, “TETRAHYDROPYRIDAZINES, COMPOSITIONS COMPRISING THEM AND USES THEREOF” (Novo Nordisk A/S, priority 2021, published 2025).

For assay [1], the target named is T1, human CB1 receptor (Homo sapiens, UniProt P21554).
T1 construct: expressed in transfected cells; host or cells: HEK293
Nature of the assay: bioSensAll GAPL-Gi2 BRET biosensor assay in transfected HEK293 cells, inhibition of CP-55,940 response. The format is cell-based. The note with it: HEK293 cells transfected with hCB1 and GAPL-Gi2 biosensor, test compound then EC75 of CP-55,940 (0.1 nM), overnight incubation, read-out: CB1 wt Gi2 EC50. As for the experimental part: (§1) Using polyethylenimine (PEI) transfection agent, HEK293 cells were transfected in suspension with the human CB1 or CB1 b receptor and one of the following bioSensAll® assays: GAPL-Gi2, or β-arrestin plasma membrane (PM) translocation biosensor (+GRK2). Cells were directly seeded in 96-well plates immediately following transfection.
(§2) Cells were incubated with coelenterazine (luciferase substrate) and different test compounds prior to the measurement of BRET signals.
(§3) Used in this project are i) Ga plasma membrane (GAPL) biosensors and the ii) β-arrestin plasma membrane translocation biosensor. • i) GAPL sensors are used to monitor the activation of heterotrimeric G proteins at the plasma membrane upon receptor stimulation. Specifically, these multimolecular BRET sensors detect the plasma membrane recruitment of proteins that interact with active Ga subunits in a G protein family-selective manner. G protein activation following receptor stimulation generally leads to an increase in the BRET signal. • ii) The multimolecular β-arrestin membrane recruitment biosensors allow for real-time spatio-temporal monitoring of β-arrestin 1 and β-arrestin 2 following GPCR activation. Specifically, these β-arrestin sensors were designed to detect the recruitment of proteins to the plasma membrane β-arrestin PM) with localization to compartment resulting in an increased BRET signal. c) Cell Culture Conditions HEK293 cells were maintained in Dulbecco's Modified Eagle Medium (DMEM) (Wisent; cat #319-030-CL: without sodium pyruvate, with 4.5 g/L glucose, without L-glutamine) supplemented with 1% penicillin-streptomycin (Wisent; cat #450-201-EL) and 2 or 10% fetal bovine serum (Wisent cat #090150).
(§4) HEK293 cells were co-transfected with hCB1 or hCB1b and one of the above-listed bioSensAll® assays. For each transfection condition: • the total amount of transfected DNA was kept constant at 1 μg per mL of cell culture to be transfected; whenever necessary, salmon sperm DNA (Invitrogen, cat #15632011) was used as ‘carrier’ DNA to supplement plasmid DNA (i.e., biosensor and receptor); • the PEI (polyethylenimine 25 kDa linear, PolyScience, cat #23966) to DNA ratio (ug:ug) was fixed at 3:1. Transfections were Carried Out as Follows: • DNA and PEI were first diluted separately in 150 mM NaCl. The volume of the diluent in each tube corresponds to 5% of the cell culture volume to be transfected. • Once DNA and PEI were diluted, the PEI-containing solution was added to the DNA solution and the DNA/PEI mixture immediately vortexed for 5 seconds. • The DNA/PEI mixture was incubated for at least 20 minutes at room temperature to allow for the formation of DNA/PEI complexes. • During the incubation, HEK293 cells were detached, counted and re-suspended in culture medium (composition specified above). • At the end of the incubation period, the DNA/PEI mixture was added to the cells. • Cells were finally distributed in 96-well plates (White Opaque 96-well/Microplates, Greiner, cat #655083 or CulturPlate-96, White Opaque 96-well Microplate, PerkinElmer, cat #6005688) at a density of 30 000 cells per well.
(§5) • Using 450-Select TS Biotek plate washer, culture medium was aspirated and replaced with 100 μl of Hank's Balanced Salt Solution buffer (HBSS) (Wisent, cat #319-067CL: without red phenol; with sodium bicarbonate, with calcium and magnesium, with HEPES) per well. This process was performed a total of two times (i.e., 2 washes). • After the washing step, the HP D300 digital dispenser (Tecan) was used to inject increasing doses (12) of test compounds (ranging from 0-600 nM) to wells. […]
Background: BRET reads energy transfer from a luciferase to a nearby fluorophore.

Assay [2] deals with T1, human CB1 receptor. In words: bioSensAll β-arrestin plasma membrane (PM) translocation BRET biosensor (+GRK2) assay in transfected HEK293 cells, inhibition of CP-55,940 response. The format is cell-based. Particulars: HEK293 cells transfected with hCB1 and β-arrestin PM translocation biosensor (+GRK2), test compound then EC75 of CP-55,940 (100 nM), overnight incubation, read-out: CB1 wt βarr2 EC50. As for the experimental part:
as §1, §2, §3, §4, §5

In general, EC50 refers to the concentration that produces a half-maximal response.

T1 sequence (P21554 whole entry): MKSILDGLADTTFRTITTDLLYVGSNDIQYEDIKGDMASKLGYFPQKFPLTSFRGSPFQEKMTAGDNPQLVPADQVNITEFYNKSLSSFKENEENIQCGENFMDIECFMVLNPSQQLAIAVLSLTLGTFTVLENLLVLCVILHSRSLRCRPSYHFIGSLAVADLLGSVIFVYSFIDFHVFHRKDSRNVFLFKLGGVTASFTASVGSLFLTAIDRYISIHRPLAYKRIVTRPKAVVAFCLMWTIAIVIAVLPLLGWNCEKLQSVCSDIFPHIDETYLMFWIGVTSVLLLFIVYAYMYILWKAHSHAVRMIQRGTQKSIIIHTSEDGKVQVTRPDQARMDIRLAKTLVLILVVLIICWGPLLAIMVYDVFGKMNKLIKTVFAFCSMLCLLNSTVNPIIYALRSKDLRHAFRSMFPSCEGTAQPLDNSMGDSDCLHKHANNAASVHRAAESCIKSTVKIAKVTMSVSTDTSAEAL

For the compound `CC(=O)NC(N)=NC(=NS(=O)(=O)c1ccc(Cl)cc1)N1CCC(c2ccccc2)C(c2ccc(Cl)cc2)=N1` (single isomer, unassigned) [Compound 1 Isomer 1, N-[(E)-N′-[(Z)-C-[6-(4-chlorophenyl)-5-phenyl-4,5-dihydro-3H-pyridazin-2-yl]-N-(4-chlorophenyl)sulfonylcarbonimidoyl]carbamimidoyl]acetamide], the EC50 is 430 nM at human CB1 receptor [1] and over 30000 nM on human CB1 receptor [2].

Turning to `CC(=O)NC(N)=NC(=NS(=O)(=O)c1ccc(Cl)cc1)N1CCC(c2ccccc2)C(c2ccc(Cl)cc2)=N1` (single isomer, unassigned) [Compound 1 Isomer 2, N-[(E)-N′-[(Z)-C-[6-(4-chlorophenyl)-5-phenyl-4,5-dihydro-3H-pyridazin-2-yl]-N-(4-chlorophenyl)sulfonylcarbonimidoyl]carbamimidoyl]acetamide], the figures for the EC50 on human CB1 receptor [1] and on human CB1 receptor [2] were 1.2 nM and 3.3 nM, respectively.

Turning to `CC(=O)N/C(N)=N/C(=N/S(=O)(=O)N1CCCCC1)N1CCC(c2ccccc2)C(c2ccc(Cl)cc2)=N1` (single isomer, unassigned) [Compound 2 Isomer 1, N-[(E)-N′-[(Z)-C-[6-(4-chlorophenyl)-5-phenyl-4,5-dihydro-3H-pyridazin-2-yl]-N-(1-piperidylsulfonyl)carbonimidoyl]carbamimidoyl]acetamide], the figures for the EC50 on human CB1 receptor [1] and at human CB1 receptor [2] were 300 nM and 23600 nM, respectively.

As to `CC(=O)N/C(N)=N/C(=N/S(=O)(=O)N1CCCCC1)N1CCC(c2ccccc2)C(c2ccc(Cl)cc2)=N1` (single isomer, unassigned) [Compound 2 Isomer 2, N-[(E)-N′-[(Z)-C-[6-(4-chlorophenyl)-5-phenyl-4,5-dihydro-3H-pyridazin-2-yl]-N-(1-piperidylsulfonyl)carbonimidoyl]carbamimidoyl]acetamide], the EC50 is 0.65 nM on human CB1 receptor [1] and 1.5 nM on human CB1 receptor [2].

As to `CC(=O)N/C(N)=N/C(=N/S(=O)(=O)N1CCC(C(F)(F)F)CC1)N1CCC(c2ccccc2)C(c2ccc(Cl)cc2)=N1` (single isomer, unassigned) [Compound 3 Isomer 1, N-[(E)-N′-[(Z)-C-[6-(4-chlorophenyl)-5-phenyl-4,5-dihydro-3H-pyridazin-2-yl]-N-[[4-(trifluoromethyl)-1-piperidyl]sulfonyl]carbonimidoyl]carbamimidoyl]acetamide], the concentration for a half-maximal effect (EC50) at human CB1 receptor [1] came out at 190 nM; at human CB1 receptor [2] it was 14100 nM.

In the case of `CC(=O)N/C(N)=N/C(=N/S(=O)(=O)N1CCC(C(F)(F)F)CC1)N1CCC(c2ccccc2)C(c2ccc(Cl)cc2)=N1` (single isomer, unassigned) [Compound 3 Isomer 2, N-[(E)-N′-[(Z)-C-[6-(4-chlorophenyl)-5-phenyl-4,5-dihydro-3H-pyridazin-2-yl]-N-[[4-(trifluoromethyl)-1-piperidyl]sulfonyl]carbonimidoyl]carbamimidoyl]acetamide], the EC50 was determined as 0.64 nM on human CB1 receptor [1] and 1.3 nM on human CB1 receptor [2].

Turning to `CC(=O)N/C(N)=N/C(=N/S(=O)(=O)N1CCC(F)(F)CC1)N1CCC(c2ccccc2)C(c2ccc(Cl)cc2)=N1` (single isomer, unassigned) [Compound 4 Isomer 1, N-[(E)-N′-[(Z)-C-[6-(4-chlorophenyl)-5-phenyl-4,5-dihydro-3H-pyridazin-2-yl]-N-[(4,4-difluoro-1-piperidyl)sulfonyl]carbonimidoyl]carbamimidoyl]acetamide], the EC50 on human CB1 receptor [1] and at human CB1 receptor [2] was over 30000 nM each time.

For `CC(=O)N/C(N)=N/C(=N/S(=O)(=O)N1CCC(F)(F)CC1)N1CCC(c2ccccc2)C(c2ccc(Cl)cc2)=N1` (single isomer, unassigned) [Compound 4 Isomer 2, N-[(E)-N′-[(Z)-C-[6-(4-chlorophenyl)-5-phenyl-4,5-dihydro-3H-pyridazin-2-yl]-N-[(4,4-difluoro-1-piperidyl)sulfonyl]carbonimidoyl]carbamimidoyl]acetamide], the half-maximal effective concentration (EC50) at human CB1 receptor [1] was found to be 0.67 nM; at human CB1 receptor [2] it was 1.4 nM.

Turning to `CC(=O)N/C(N)=N/C(=N/S(=O)(=O)N1CCCC(F)(F)C1)N1CCC(c2ccccc2)C(c2ccc(Cl)cc2)=N1` (single isomer, unassigned) [Compound 5 Isomer 1, N-[(E)-N′-[(Z)-C-[6-(4-chlorophenyl)-5-phenyl-4,5-dihydro-3H-pyridazin-2-yl]-N-[(3,3-difluoro-1-piperidyl)sulfonyl]carbonimidoyl]carbamimidoyl]acetamide], the EC50 at human CB1 receptor [1] worked out at 150 nM; on human CB1 receptor [2], 400 nM.

Turning to `CC(=O)N/C(N)=N/C(=N/S(=O)(=O)N1CCCC(F)(F)C1)N1CCC(c2ccccc2)C(c2ccc(Cl)cc2)=N1` (single isomer, unassigned) [Compound 5 Isomer 2, N-[(E)-N′-[(Z)-C-[6-(4-chlorophenyl)-5-phenyl-4,5-dihydro-3H-pyridazin-2-yl]-N-[(3,3-difluoro-1-piperidyl)sulfonyl]carbonimidoyl]carbamimidoyl]acetamide], the EC50 stood at 0.43 nM at human CB1 receptor [1] and 0.72 nM on human CB1 receptor [2].

Consider `CC(=O)NC(N)=NC(=NS(=O)(=O)c1cc(F)cc(F)c1)N1CCC(c2ccccc2)C(c2ccc(Cl)cc2)=N1` (single isomer, unassigned) [Compound 6 Isomer 1, N-[(E)-N′-[(Z)-C-[6-(4-chlorophenyl)-5-phenyl-4,5-dihydro-3H-pyridazin-2-yl]-N-(3,5-difluorophenyl)sulfonylcarbonimidoyl]carbamimidoyl]acetamide], for which the EC50 on human CB1 receptor [1] amounted to 39 nM; at human CB1 receptor [2], 380 nM.

Regarding `CC(=O)NC(N)=NC(=NS(=O)(=O)c1cc(F)cc(F)c1)N1CCC(c2ccccc2)C(c2ccc(Cl)cc2)=N1` (single isomer, unassigned) [Compound 6 Isomer 2, N-[(E)-N′-[(Z)-C-[6-(4-chlorophenyl)-5-phenyl-4,5-dihydro-3H-pyridazin-2-yl]-N-(3,5-difluorophenyl)sulfonylcarbonimidoyl]carbamimidoyl]acetamide], the EC50 was 0.68 nM at human CB1 receptor [1] and 2.6 nM at human CB1 receptor [2].

For `CC(=O)N/C(N)=N\C(=N\S(=O)(=O)c1ccc(C(F)(F)F)cc1)N1CCC(c2ccccc2)C(c2ccc(Cl)cc2)=N1` (single isomer, unassigned) [Compound 7 Isomer 1, N-[(E)-N′-[(Z)-C-[6-(4-chlorophenyl)-5-phenyl-4,5-dihydro-3H-pyridazin-2-yl]-N-[4-(trifluoromethyl)phenyl]sulfonyl-carbonimidoyl]carbamimidoyl]acetamide], the EC50 on human CB1 receptor [1] stood at 200 nM; at human CB1 receptor [2] it was 580 nM.

In the case of `CC(=O)N/C(N)=N\C(=N\S(=O)(=O)c1ccc(C(F)(F)F)cc1)N1CCC(c2ccccc2)C(c2ccc(Cl)cc2)=N1` (single isomer, unassigned) [Compound 7 Isomer 2, N-[(E)-N′-[(Z)-C-[6-(4-chlorophenyl)-5-phenyl-4,5-dihydro-3H-pyridazin-2-yl]-N-[4-(trifluoromethyl)phenyl]sulfonyl-carbonimidoyl]carbamimidoyl]acetamide], the EC50 was 0.42 nM at human CB1 receptor [1] and 2.1 nM at human CB1 receptor [2].

As for `CC(=O)NC(=N)/N=C(/NS(=O)(=O)c1ccc(C(F)(F)F)cn1)N1CCC(c2ccccc2)C(c2ccc(Cl)cc2)=N1` (single isomer, unassigned) [Compound 8 Isomer 1, N-[(NE)-N-[[6-(4-chlorophenyl)-5-phenyl-4,5-dihydro-3H-pyridazin-2-yl]-[[5-(trifluoromethyl)-2-pyridyl]sulfonylamino]methylene]carbamimidoyl]acetamide], the EC50 at human CB1 receptor [1] and on human CB1 receptor [2] was over 30000 nM each time.
